Test [1] concerns Pseudomonas aeruginosa. The test is described as follows: Antibacterial activity against Pseudomonas aeruginosa after 24 hrs by micro broth dilution assay. Type of test: functional. In general terms: Dilution methods test growth across graded concentrations, often in twofold steps.
The test system of test [2] is Staphylococcus aureus. The experiment in a line: Antibacterial activity against Staphylococcus aureus ATCC 25923 incubated for 24 hrs followed by plating onto tryptic soy agar medium and measured after 24 hrs. Type of test: functional. The following applies: ATCC 25923, 24 h.
A further test relates to Saccharomyces cerevisiae. The test is described as follows: Antifungal against Saccharomyces cerevisiae after 24 hrs by two fold serial dilution method. Type of test: functional.
Test [3] concerns Staphylococcus aureus. The experiment in a line: Ratio of MBC for methicillin-resistant Staphylococcus aureus N315 to MIC for methicillin-resistant Staphylococcus aureus N315. Type of test: functional.
Test [4] has as its system Pseudomonas aeruginosa. The test is described as follows: Antibacterial activity against Pseudomonas aeruginosa incubated for 24 hrs followed by plating onto tryptic soy agar medium and measured after 24 hrs. Type of test: functional.
Another test has as its system Shigella dysenteriae. The test is described as follows: Antibacterial activity against Shigella dysenteriae after 24 hrs by micro broth dilution assay. Type of test: functional.
Test [5] deals with Escherichia coli. The experiment in a line: Antibacterial activity against Escherichia coli JM109 after 24 hrs by micro broth dilution assay. It counts as functional. The following applies: JM109, 24 h.
In another test the test system is Salmonella typhi. The experiment in a line: Antibacterial activity against Bacillus typhi after 24 hrs by micro broth dilution assay. It counts as functional, Salmonella enterica subsp. enterica serovar Typhi. The following applies: Salmonella enterica.
The test system of the next test is Pichia norvegensis. The test is described as follows: Antifungal against Candida mycoderma after 24 hrs by two fold serial dilution method. Type of test: functional.
Test [6] has as its system Staphylococcus aureus. The test is described as follows: Antibacterial activity against methicillin-resistant Staphylococcus aureus N315 after 24 hrs by micro broth dilution assay. It counts as functional. As to conditions: N315, 24 h.
Another test deals with Bacillus. The experiment in a line: Antibacterial activity against Bacillus proteus ATCC 13315 after 24 hrs by micro broth dilution assay. It counts as functional. As to conditions: ATCC 13315, 24 h.
Test [7] has as its system Escherichia coli. The experiment in a line: Antibacterial activity against Escherichia coli DH52 after 24 hrs by micro broth dilution assay. Type of test: functional. The following applies: DH52, 24 h.
The next test relates to Aspergillus flavus. The test is described as follows: Antifungal against Aspergillus flavus after 24 hrs by two fold serial dilution method. Type of test: functional.
The test system of test [8] is Staphylococcus aureus. The experiment in a line: Ratio of MBC for Staphylococcus aureus ATCC 25923 to MIC for Staphylococcus aureus ATCC 25923. Type of test: functional.
Another test relates to Candida albicans. The test is described as follows: Antifungal against Candida albicans ATCC 76615 after 24 hrs by two fold serial dilution method. It counts as functional. As to conditions: ATCC 76615, 24 h.
In the next test the test system is Cyberlindnera jadinii. The experiment in a line: Antifungal against Candida utilis after 24 hrs by two fold serial dilution method. It counts as functional. As to conditions: Williopsis jadinii.
For another test, the system named is Bacillus subtilis. The experiment in a line: Antibacterial activity against Bacillus subtilis after 24 hrs by micro broth dilution assay. Type of test: functional.
Test [9] has as its system Staphylococcus aureus. The test is described as follows: Antibacterial activity against Staphylococcus aureus ATCC 25923 after 24 hrs by micro broth dilution assay. Type of test: functional. The following applies: ATCC 25923, 24 h.
The next test concerns Micrococcus luteus. The experiment in a line: Antibacterial activity against Micrococcus luteus ATCC4698 after 24 hrs by micro broth dilution assay. Type of test: functional. As to conditions: ATCC4698, 24 h.
Test [10] deals with Staphylococcus aureus. The experiment in a line: Antibacterial activity against methicillin-resistant Staphylococcus aureus N315 incubated for 24 hrs followed by plating onto tryptic soy agar medium and measured after 24 hrs. Type of test: functional. The following applies: N315, 24 h.
In test [11] the test system is Pseudomonas aeruginosa. The test is described as follows: Ratio of MBC for Pseudomonas aeruginosa to MIC for Pseudomonas aeruginosa. It counts as functional.

Values after ≈ are worked out from the molar mass of the structure shown.

For the compound `CCCCn1c(-c2cc(-c3ccc(C)cc3)nc(N)n2)nc2ccccc21`, the MIC with Pseudomonas aeruginosa [1] came out at 8 µg/mL (≈ 22.4 µM); in the test with Saccharomyces cerevisiae, 32 µg/mL (≈ 89.5 µM); in the test on Shigella dysenteriae, 16 µg/mL (≈ 44.8 µM); against Escherichia coli [5] it was 16 µg/mL (≈ 44.8 µM); in the test with Salmonella typhi, 32 µg/mL (≈ 89.5 µM); in the test on Pichia norvegensis it was 8 µg/mL (≈ 22.4 µM). Also, the minimal inhibitory concentration (MIC) against Staphylococcus aureus [6] turned out to be 16 µg/mL (≈ 44.8 µM); with Bacillus, 16 µg/mL (≈ 44.8 µM); against Escherichia coli [7], 32 µg/mL (≈ 89.5 µM); against Aspergillus flavus it was 64 µg/mL (≈ 179 µM); against Candida albicans it was 128 µg/mL (≈ 358 µM); in the test with Cyberlindnera jadinii, 4 µg/mL (≈ 11.2 µM). The MIC with Bacillus subtilis came out at 16 µg/mL (≈ 44.8 µM); in the test with Staphylococcus aureus [9] it was 8 µg/mL (≈ 22.4 µM); against Micrococcus luteus, 16 µg/mL (≈ 44.8 µM). In addition, the minimal bactericidal concentration (MBC) was 32 µg/mL (≈ 89.5 µM) against Staphylococcus aureus [2], 16 µg/mL (≈ 44.8 µM) in the test with Pseudomonas aeruginosa [4] and 16 µg/mL (≈ 44.8 µM) against Staphylococcus aureus [10]. Moreover, the Ratio is given as 1 with Staphylococcus aureus [3] and 4 in the test on Staphylococcus aureus [8].
With `CCCCCCn1c(-c2cc(-c3ccc(Cl)cc3)nc(N)n2)nc2ccccc21`, the MIC turned out to be 512 µg/mL (≈ 1260 µM) against Pseudomonas aeruginosa [1]; 512 µg/mL (≈ 1260 µM) against Saccharomyces cerevisiae; 64 µg/mL (≈ 158 µM) in the test on Shigella dysenteriae; 16 µg/mL (≈ 39.4 µM) in the test on Escherichia coli [5]; 128 µg/mL (≈ 315 µM) against Salmonella typhi; 8 µg/mL (≈ 19.7 µM) against Pichia norvegensis. Also, the MIC was found to be 32 µg/mL (≈ 78.8 µM) against Staphylococcus aureus [6]; 256 µg/mL (≈ 631 µM) against Bacillus; 2 µg/mL (≈ 4.93 µM) in the test on Escherichia coli [7]; 32 µg/mL (≈ 78.8 µM) against Aspergillus flavus; 4 µg/mL (≈ 9.85 µM) in the test with Candida albicans; 8 µg/mL (≈ 19.7 µM) in the test with Cyberlindnera jadinii. For the same compound, the values for the MIC with Bacillus subtilis, against Staphylococcus aureus [9] and in the test on Micrococcus luteus were 128 µg/mL (≈ 315 µM), 256 µg/mL (≈ 631 µM) and 2 µg/mL (≈ 4.93 µM), respectively. The results for the MBC in the test with Staphylococcus aureus [2], in the test with Pseudomonas aeruginosa [4] and in the test with Staphylococcus aureus [10] were 512 µg/mL (≈ 1260 µM), more than 512 µg/mL and 32 µg/mL (≈ 78.8 µM), respectively. Further, the Ratio in the test with Staphylococcus aureus [3] is recorded as 1; in the test on Staphylococcus aureus [8], 2.
Take `CCCCn1c(-c2cc(-c3ccc(Cl)cc3)nc(N)n2)nc2ccccc21`: the MIC against Pseudomonas aeruginosa [1] was 64 µg/mL (≈ 169 µM); with Saccharomyces cerevisiae, 128 µg/mL (≈ 339 µM); against Shigella dysenteriae, 256 µg/mL (≈ 677 µM); in the test on Escherichia coli [5], 64 µg/mL (≈ 169 µM); against Salmonella typhi, 8 µg/mL (≈ 21.2 µM); in the test with Pichia norvegensis it was 4 µg/mL (≈ 10.6 µM). The MIC in the test with Staphylococcus aureus [6] worked out at 32 µg/mL (≈ 84.7 µM); in the test with Bacillus it was 4 µg/mL (≈ 10.6 µM); against Escherichia coli [7], 128 µg/mL (≈ 339 µM); in the test with Aspergillus flavus, 256 µg/mL (≈ 677 µM); in the test with Candida albicans, 64 µg/mL (≈ 169 µM); in the test with Cyberlindnera jadinii, 2 µg/mL (≈ 5.29 µM). Also, the MIC with Bacillus subtilis was 64 µg/mL (≈ 169 µM); against Staphylococcus aureus [9], 16 µg/mL (≈ 42.3 µM); with Micrococcus luteus it was 64 µg/mL (≈ 169 µM). Moreover, the MBC in the test with Staphylococcus aureus [2] was determined as 16 µg/mL (≈ 42.3 µM); against Pseudomonas aeruginosa [4], 512 µg/mL (≈ 1350 µM); in the test with Staphylococcus aureus [10], 64 µg/mL (≈ 169 µM). Further, the Ratio worked out at 2 in the test with Staphylococcus aureus [3], 8 with Pseudomonas aeruginosa [11] and 1 with Staphylococcus aureus [8].
Turning to `CCCCn1c(-c2cc(-c3ccc(F)cc3)nc(N)n2)nc2ccccc21`, the MIC in the test on Pseudomonas aeruginosa [1] is 512 µg/mL (≈ 1420 µM); in the test on Saccharomyces cerevisiae it was 32 µg/mL (≈ 88.5 µM); against Shigella dysenteriae, 8 µg/mL (≈ 22.1 µM); in the test with Escherichia coli [5] it was 256 µg/mL (≈ 708 µM); in the test with Salmonella typhi, 8 µg/mL (≈ 22.1 µM); with Pichia norvegensis it was 8 µg/mL (≈ 22.1 µM). The MIC came to 256 µg/mL (≈ 708 µM) in the test with Staphylococcus aureus [6]; 64 µg/mL (≈ 177 µM) against Bacillus; 8 µg/mL (≈ 22.1 µM) in the test on Escherichia coli [7]; 512 µg/mL (≈ 1420 µM) with Aspergillus flavus; 512 µg/mL (≈ 1420 µM) against Candida albicans; 8 µg/mL (≈ 22.1 µM) with Cyberlindnera jadinii. Moreover, the MIC was determined as 1 µg/mL (≈ 2.77 µM) in the test with Bacillus subtilis, 128 µg/mL (≈ 354 µM) against Staphylococcus aureus [9] and 512 µg/mL (≈ 1420 µM) with Micrococcus luteus. Also, the MBC in the test on Staphylococcus aureus [2] is 256 µg/mL (≈ 708 µM); in the test on Pseudomonas aeruginosa [4], more than 512 µg/mL; against Staphylococcus aureus [10], more than 512 µg/mL. In the test on Staphylococcus aureus [8], the Ratio was 2.
`Nc1nc(-c2nc3ccccc3[nH]2)cc(-c2ccc(Cl)cc2Cl)n1`: the MIC amounted to 32 µg/mL (≈ 89.8 µM) with Pseudomonas aeruginosa [1]; 8 µg/mL (≈ 22.5 µM) in the test with Saccharomyces cerevisiae; 16 µg/mL (≈ 44.9 µM) against Shigella dysenteriae; 64 µg/mL (≈ 180 µM) against Escherichia coli [5]; 16 µg/mL (≈ 44.9 µM) with Salmonella typhi; 2 µg/mL (≈ 5.61 µM) in the test on Pichia norvegensis. Further, the MIC was determined as 8 µg/mL (≈ 22.5 µM) with Staphylococcus aureus [6]; 1 µg/mL (≈ 2.81 µM) against Bacillus; 16 µg/mL (≈ 44.9 µM) against Escherichia coli [7]; 8 µg/mL (≈ 22.5 µM) in the test with Aspergillus flavus; 1 µg/mL (≈ 2.81 µM) in the test on Candida albicans; 2 µg/mL (≈ 5.61 µM) in the test on Cyberlindnera jadinii. Further, the MIC is 8 µg/mL (≈ 22.5 µM) against Bacillus subtilis, 8 µg/mL (≈ 22.5 µM) against Staphylococcus aureus [9] and 1 µg/mL (≈ 2.81 µM) in the test on Micrococcus luteus. The MBC in the test on Staphylococcus aureus [2] stood at 8 µg/mL (≈ 22.5 µM); against Pseudomonas aeruginosa [4], 64 µg/mL (≈ 180 µM); with Staphylococcus aureus [10], 16 µg/mL (≈ 44.9 µM). In addition, the Ratio in the test with Staphylococcus aureus [3] is on record as 2; in the test on Pseudomonas aeruginosa [11], 2; in the test on Staphylococcus aureus [8] it was 1.
In the case of `CCCCn1c(C(=O)/C=C/c2ccc(Cl)cc2)nc2ccccc21`, the MIC in the test with Pseudomonas aeruginosa [1] stood at 512 µg/mL (≈ 1510 µM); in the test with Saccharomyces cerevisiae, 16 µg/mL (≈ 47.2 µM); against Shigella dysenteriae, 32 µg/mL (≈ 94.4 µM); against Escherichia coli [5], 256 µg/mL (≈ 756 µM); in the test on Salmonella typhi, 512 µg/mL (≈ 1510 µM); against Pichia norvegensis, 256 µg/mL (≈ 756 µM). The MIC against Staphylococcus aureus [6] came out at 8 µg/mL (≈ 23.6 µM); in the test on Bacillus it was 128 µg/mL (≈ 378 µM); against Escherichia coli [7], 512 µg/mL (≈ 1510 µM); with Aspergillus flavus, 512 µg/mL (≈ 1510 µM); against Candida albicans it was 256 µg/mL (≈ 756 µM); with Cyberlindnera jadinii, 512 µg/mL (≈ 1510 µM). Further, the MIC against Bacillus subtilis is 512 µg/mL (≈ 1510 µM); in the test with Staphylococcus aureus [9], 64 µg/mL (≈ 189 µM); with Micrococcus luteus, 512 µg/mL (≈ 1510 µM).

In general, MIC refers to the smallest concentration in the dilution series that meets the test's criterion for growth inhibition. For orientation: MBC means the lowest tested concentration that kills the bacteria rather than only halting them. The low end stands for more potent killing, the high end for less potent killing.

Source of the values: ChEMBL document CHEMBL4251572, “Novel aminopyrimidinyl benzimidazoles as potentially antimicrobial agents: Design, synthesis and biological evaluation” (Eur J Med Chem, 2018).
